Assay results from US8691865B2 (AbbVie Inc., priority 2008, dated 2014).
Where two headings read alike, the source gives them in different places.

Target: human Cav2.2 (Homo sapiens, UniProt Q00975)
Test: Assessment of calcium channel activity using FLIPR (Ca2+ influx in IMR32 cells)
Type: cell-based
Method in brief: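 IC50 values derive from nonlinear sigmoidal fitting of percent inhibition, relative to inhibitor-free activity, of Ca2+ influx read by FLIPR. Cells were IMR32 human neuroblastoma, plated at 1−1.2×10^5 per well and grown 48 h at 37 °C.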

[1] = read-out: IC50 (μM) or percent inhibition (* indicates 3 minute incubation, otherwise 60 minute), IC50, 60 minute pre-incubation with compound, IMR32 cells, 80 mM KCl depolarization

Chain of human Cav2.2 (Q00975 whole entry): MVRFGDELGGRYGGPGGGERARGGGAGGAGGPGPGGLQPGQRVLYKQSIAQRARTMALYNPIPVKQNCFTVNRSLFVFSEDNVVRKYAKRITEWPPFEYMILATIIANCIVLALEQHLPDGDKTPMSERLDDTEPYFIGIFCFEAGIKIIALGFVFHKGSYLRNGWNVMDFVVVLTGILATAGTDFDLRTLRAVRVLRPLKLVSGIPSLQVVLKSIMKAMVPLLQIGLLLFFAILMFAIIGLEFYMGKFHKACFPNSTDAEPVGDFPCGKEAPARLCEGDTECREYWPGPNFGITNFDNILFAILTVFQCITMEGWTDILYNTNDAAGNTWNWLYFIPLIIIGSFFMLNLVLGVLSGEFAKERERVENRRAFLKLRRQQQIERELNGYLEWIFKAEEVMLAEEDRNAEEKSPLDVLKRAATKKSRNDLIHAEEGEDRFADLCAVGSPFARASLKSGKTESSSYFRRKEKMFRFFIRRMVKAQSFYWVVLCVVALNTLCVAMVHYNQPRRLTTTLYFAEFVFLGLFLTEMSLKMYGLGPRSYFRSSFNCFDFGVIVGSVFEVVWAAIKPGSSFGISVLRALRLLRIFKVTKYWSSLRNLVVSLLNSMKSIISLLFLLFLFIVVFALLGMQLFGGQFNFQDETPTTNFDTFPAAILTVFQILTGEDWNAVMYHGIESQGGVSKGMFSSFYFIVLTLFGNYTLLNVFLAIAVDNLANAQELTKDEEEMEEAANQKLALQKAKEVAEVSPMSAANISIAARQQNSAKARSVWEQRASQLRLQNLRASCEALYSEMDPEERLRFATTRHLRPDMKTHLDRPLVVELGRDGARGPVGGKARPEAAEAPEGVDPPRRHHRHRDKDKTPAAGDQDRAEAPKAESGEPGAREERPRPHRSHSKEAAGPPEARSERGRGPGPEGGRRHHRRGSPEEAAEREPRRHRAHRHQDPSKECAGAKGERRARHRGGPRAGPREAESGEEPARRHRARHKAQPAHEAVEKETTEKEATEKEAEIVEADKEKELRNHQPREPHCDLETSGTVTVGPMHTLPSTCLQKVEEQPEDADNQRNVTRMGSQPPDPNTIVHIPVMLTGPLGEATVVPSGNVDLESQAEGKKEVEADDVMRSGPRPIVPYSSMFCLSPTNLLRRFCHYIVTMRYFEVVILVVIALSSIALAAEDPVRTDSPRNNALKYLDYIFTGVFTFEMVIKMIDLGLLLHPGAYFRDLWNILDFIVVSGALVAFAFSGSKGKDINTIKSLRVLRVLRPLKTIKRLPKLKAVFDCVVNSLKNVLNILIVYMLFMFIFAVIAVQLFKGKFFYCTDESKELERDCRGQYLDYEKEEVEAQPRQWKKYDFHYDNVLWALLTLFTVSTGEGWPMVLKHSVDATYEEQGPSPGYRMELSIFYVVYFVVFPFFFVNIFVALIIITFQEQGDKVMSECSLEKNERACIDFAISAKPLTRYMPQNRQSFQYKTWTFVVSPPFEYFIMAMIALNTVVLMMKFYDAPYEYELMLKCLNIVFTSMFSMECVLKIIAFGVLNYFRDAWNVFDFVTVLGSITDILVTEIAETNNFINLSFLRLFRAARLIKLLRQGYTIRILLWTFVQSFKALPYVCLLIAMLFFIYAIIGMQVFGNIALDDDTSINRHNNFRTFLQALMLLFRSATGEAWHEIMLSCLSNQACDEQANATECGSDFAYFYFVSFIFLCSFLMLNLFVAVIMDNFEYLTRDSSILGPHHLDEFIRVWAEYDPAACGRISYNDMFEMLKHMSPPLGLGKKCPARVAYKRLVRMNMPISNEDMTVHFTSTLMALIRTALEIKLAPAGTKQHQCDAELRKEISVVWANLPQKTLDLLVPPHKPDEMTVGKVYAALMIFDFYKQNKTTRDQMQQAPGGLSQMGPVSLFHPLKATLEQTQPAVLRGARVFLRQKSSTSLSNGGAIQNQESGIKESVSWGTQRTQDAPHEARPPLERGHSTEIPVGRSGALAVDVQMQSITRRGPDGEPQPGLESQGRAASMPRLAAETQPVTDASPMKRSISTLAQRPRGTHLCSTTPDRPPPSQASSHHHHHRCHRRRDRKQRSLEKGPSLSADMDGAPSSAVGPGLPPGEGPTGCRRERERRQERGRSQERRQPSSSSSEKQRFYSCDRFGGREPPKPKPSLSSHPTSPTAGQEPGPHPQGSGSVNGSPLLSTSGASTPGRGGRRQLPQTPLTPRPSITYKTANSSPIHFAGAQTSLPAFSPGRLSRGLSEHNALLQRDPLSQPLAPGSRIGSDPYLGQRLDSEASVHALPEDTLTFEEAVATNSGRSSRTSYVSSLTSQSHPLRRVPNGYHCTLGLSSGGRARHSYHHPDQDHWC
Chain of human Cav2.2 (P54289 25-956 partner limits assumed): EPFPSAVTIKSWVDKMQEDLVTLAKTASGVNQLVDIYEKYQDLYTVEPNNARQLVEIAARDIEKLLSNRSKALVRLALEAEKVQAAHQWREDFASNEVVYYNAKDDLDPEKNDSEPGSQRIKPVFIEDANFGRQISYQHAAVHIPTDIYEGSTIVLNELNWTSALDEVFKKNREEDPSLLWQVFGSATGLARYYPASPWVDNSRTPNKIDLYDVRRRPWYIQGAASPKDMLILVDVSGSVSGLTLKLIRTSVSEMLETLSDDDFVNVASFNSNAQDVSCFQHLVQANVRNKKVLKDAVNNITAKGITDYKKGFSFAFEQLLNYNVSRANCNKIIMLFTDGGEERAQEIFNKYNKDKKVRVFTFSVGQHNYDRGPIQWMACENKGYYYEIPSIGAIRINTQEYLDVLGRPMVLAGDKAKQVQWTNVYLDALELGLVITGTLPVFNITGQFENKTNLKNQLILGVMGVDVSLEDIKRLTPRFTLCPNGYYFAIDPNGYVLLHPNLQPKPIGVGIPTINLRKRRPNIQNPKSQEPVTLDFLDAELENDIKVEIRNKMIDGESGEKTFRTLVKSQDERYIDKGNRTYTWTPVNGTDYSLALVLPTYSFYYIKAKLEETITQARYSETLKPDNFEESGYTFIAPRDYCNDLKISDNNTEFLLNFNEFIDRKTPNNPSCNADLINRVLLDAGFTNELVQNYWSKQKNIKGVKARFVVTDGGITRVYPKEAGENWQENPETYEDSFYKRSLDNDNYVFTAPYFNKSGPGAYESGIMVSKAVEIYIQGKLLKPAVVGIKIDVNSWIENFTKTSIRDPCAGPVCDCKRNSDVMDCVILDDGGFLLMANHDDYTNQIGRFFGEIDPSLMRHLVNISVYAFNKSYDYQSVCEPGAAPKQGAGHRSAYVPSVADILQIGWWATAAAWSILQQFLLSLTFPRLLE
Chain of human Cav2.2 (P54289 957-1103 partner limits assumed): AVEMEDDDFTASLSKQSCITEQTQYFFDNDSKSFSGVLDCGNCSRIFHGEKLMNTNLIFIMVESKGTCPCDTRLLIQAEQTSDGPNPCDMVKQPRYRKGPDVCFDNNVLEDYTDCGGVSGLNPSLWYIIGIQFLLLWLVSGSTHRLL
Chain of human Cav2.2 (P54284 whole entry partner): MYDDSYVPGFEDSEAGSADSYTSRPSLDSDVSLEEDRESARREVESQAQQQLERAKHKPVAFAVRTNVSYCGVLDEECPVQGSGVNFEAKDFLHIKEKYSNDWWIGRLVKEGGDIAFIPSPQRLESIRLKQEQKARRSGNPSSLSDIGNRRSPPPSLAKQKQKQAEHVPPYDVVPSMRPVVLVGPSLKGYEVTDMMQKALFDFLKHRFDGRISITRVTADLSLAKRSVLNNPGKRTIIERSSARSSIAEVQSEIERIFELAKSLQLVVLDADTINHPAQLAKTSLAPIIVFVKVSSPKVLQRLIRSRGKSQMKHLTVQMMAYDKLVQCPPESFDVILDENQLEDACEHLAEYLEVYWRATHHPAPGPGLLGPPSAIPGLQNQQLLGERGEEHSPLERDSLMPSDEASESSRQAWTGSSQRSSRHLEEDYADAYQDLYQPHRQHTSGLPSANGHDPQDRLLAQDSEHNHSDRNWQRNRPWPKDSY

| Compound | IC50 [µM] | IC50 [1] [µM] |
| --- | --- | --- |
| CC(C)C[C@H](NS(C)(=O)=O)C(=O)N[C@@H]1CC[C@H]2CN(Cc3cccc(C(F)(F)F)c3)C[C@H]21 [Example 170, N^2-(methylsulfonyl)-N^1-{(3aS,4R,6aR)-2-[3-(trifluoromethyl)benzyl]octahydrocyclopenta[c]pyrrol-4-yl}-L-leucinamide] |  | 4.55 |
| O=C(N[C@H]1CC[C@@H]2CN(c3ccc(C(F)(F)F)cn3)C[C@@H]21)c1cc2ccccc2[nH]1 [Example 568, N-{(3aR,4S,6aS)-2-[5-(trifluoromethyl)pyridin-2-yl]octahydrocyclopenta[c]pyrrol-4-yl}-1H-indole-2-carboxamide] | 2.1 |  |
| O=C(N[C@H]1CC[C@H]2CN(Cc3cccc(C(F)(F)F)c3)C[C@H]21)C1CCCC1 (relative stereo) [Example 129, N-{(3aS*,4S*,6aR*)-2-[3-(trifluoromethyl)benzyl]octahydrocyclopenta[c]pyrrol-4-yl}cyclopentanecarboxamide] | 2.31 |  |
| N#Cc1ccccc1N1C[C@H]2CC[C@H](NC(=O)[C@@H]3C[C@@H](F)CN3)[C@H]2C1 [Example 651, (4R)-N-[(3aR,4S,6aS)-2-(2-cyanophenyl)octahydrocyclopenta[c]pyrrol-4-yl]-4-fluoro-L-prolinamide] | 14.9 |  |
| N[C@H]1CC[C@@H]2CN(c3ccc(C(F)(F)F)cc3)C[C@@H]21 [Example 607, (3aR,4S,6aS)-2-[4-(trifluoromethyl)phenyl]octahydrocyclopenta[c]pyrrol-4-amine] | 6.4 |  |
| COc1ccccc1N1C[C@H]2CC[C@H](NC(=O)[C@@H]3C[C@@H](F)CN3)[C@H]2C1 [Example 662, (4R)-4-fluoro-N-[(3aR,4S,6aS)-2-(2-methoxyphenyl)octahydrocyclopenta[c]pyrrol-4-yl]-L-prolinamide] | > 30 |  |
| CCC[C@H](NC)C(=O)N[C@H]1CC[C@@H]2CN(c3ccc(C(F)(F)F)cc3)C[C@@H]21 [Example 759, N^2-methyl-N-{(3aR,4S,6aS)-2-[4-(trifluoromethyl)phenyl]octahydrocyclopenta[c]pyrrol-4-yl}-L-norvalinamide] | 13 |  |
| O=C(N[C@H]1CC[C@@H]2CN(c3cccc(C(F)(F)F)n3)C[C@@H]21)c1ccc(F)c(F)c1 [Example 565, 3,4-difluoro-N-{(3aR,4S,6aS)-2-[6-(trifluoromethyl)pyridin-2-yl]octahydrocyclopenta[c]pyrrol-4-yl}benzamide] | 0.81 |  |
| CC(C)CN[C@H]1CC[C@@H]2CN(c3cccc(C(F)(F)F)n3)C[C@@H]21 [Example 610, (3aR,4S,6aS)-N-isobutyl-2-[6-(trifluoromethyl)pyridin-2-yl]octahydrocyclopenta[c]pyrrol-4-amine] | 2.01 |  |
| O=C(N[C@H]1CC[C@@H]2CN(c3ccc(C(F)(F)F)cn3)C[C@@H]21)[C@@H]1Cc2ccccc2N1 [Example 604, (2S)-N-{(3aR,4S,6aS)-2-[5-(trifluoromethyl)pyridin-2-yl]octahydrocyclopenta[c]pyrrol-4-yl}indoline-2-carboxamide] | 2.78 |  |
| CC(C)C[C@@H](C(=O)N[C@@H]1CC[C@H]2CN(Cc3cccc(C(F)(F)F)c3)C[C@H]21)N(C)C(=O)OC(C)(C)C [Example 155, N^2-(tert-butyloxycarbonyl)-N^2-methyl-N^1-{(3aS,4R,6aR)-2-[3-(trifluoromethyl)benzyl]octahydrocyclopenta[c]pyrrol-4-yl}-L-leucinamide] |  | 0.69 |
| O=C(N[C@H]1CC[C@@H]2CN(Cc3cccc(C(F)(F)F)c3)C[C@@H]21)C(C1CCCCC1)C1CCCCC1 [Example 156, 2,2-dicyclohexyl-N-{(3aR,4S,6aS)-2-[3-(trifluoromethyl)benzyl]octahydrocyclopenta[c]pyrrol-4-yl}acetamide] | 0.76 |  |
| CN[C@@H](CC(C)C)C(=O)N[C@H]1CC[C@@H]2CN(c3ccccc3F)C[C@@H]21 [Example 619, N-[(3aR,4S,6aS)-2-(2-fluorophenyl)octahydrocyclopenta[c]pyrrol-4-yl]-N^2-methyl-L-leucinamide] | 2.84 |  |
| CC(C)C(C(=O)N[C@H]1CC[C@@H]2CN(CCCCc3ccccc3)C[C@@H]21)c1ccccc1 (stereo partly drawn) [Example 113, 3-methyl-2-phenyl-N-[(3aR,4S,6aS)-2-(4-phenylbutyl)octahydrocyclopenta[c]pyrrol-4-yl]butanamide] | 0.59 |  |
| O=S(=O)(N[C@H]1CC[C@@H]2CN(c3cccc(C(F)(F)F)n3)C[C@@H]21)c1ccc(F)c(Cl)c1 [Example 710, 3-chloro-4-fluoro-N-{(3aR,4S,6aS)-2-[6-(trifluoromethyl)pyridin-2-yl]octahydrocyclopenta[c]pyrrol-4-yl}benzenesulfonamide] | 5.56 |  |
| N-methyl-N-((3aR,4S,6aS)-2-{[3-(trifluoromethyl)phenyl]sulfonyl}octahydrocyclopenta[c]pyrrol-4-yl)-L-phenylalaninamide [Example 386] |  | 1.62 |

Continued, values first:

| IC50 [µM] | IC50 [1] [µM] | Compound |
| --- | --- | --- |
| 13.7 |  | Fc1ccc2[nH]c(CN[C@H]3CC[C@@H]4CN(c5ccc(C(F)(F)F)cc5)C[C@@H]43)cc2c1 [Example 615, (3aR,4S,6aS)-N-[(5-fluoro-1H-indol-2-yl)methyl]-2-[4-(trifluoromethyl)phenyl]octahydrocyclopenta[c]pyrrol-4-amine] |
|  | > 30 | CN[C@@H](CC(C)C)C(=O)N[C@@H]1CC[C@H]2CN(Cc3ccccc3)C[C@H]21 [Example 165, N^1-[(3aS,4R,6aR)-2-benzyloctahydrocyclopenta[c]pyrrol-4-yl]-N^2-methyl-L-leucinamide] |
| 5.7 |  | CCC[C@H](NC)C(=O)N(C)[C@H]1CC[C@@H]2CN(S(=O)(=O)c3ccc(C(F)(F)F)cc3)C[C@@H]21 [Example 438, N^1,N^2-dimethyl-N^1-((3aR,4S,6aS)-2-{[4-(trifluoromethyl)phenyl]sulfonyl}octahydrocyclopenta[c]pyrrol-4-yl)-L-norvalinamide] |
| 0.98 |  | COc1ccc(-c2n[nH]cc2CN[C@H]2CC[C@@H]3CN(c4cccc(C(F)(F)F)n4)C[C@@H]32)cc1 [Example 681, (3aR,4S,6aS)-N-{[3-(4-methoxyphenyl)-1H-pyrazol-4-yl]methyl}-2-[6-(trifluoromethyl)pyridin-2-yl]octahydrocyclopenta[c]pyrrol-4-amine] |
| 2.06 |  | O=C(N[C@H]1CC[C@@H]2CN(c3cccc(C(F)(F)F)n3)C[C@@H]21)[C@H]1CC[C@@H](O)CC1 [Example 584, cis-4-hydroxy-N-{(3aR,4S,6aS)-2-[6-(trifluoromethyl)pyridin-2-yl]octahydrocyclopenta[c]pyrrol-4-yl}cyclohexanecarboxamide] |
| > 3 |  | NCC(=O)N[C@H]1CC[C@@H]2CN(c3ccc(C(F)(F)F)cc3)C[C@@H]21 [Example 751, N-{(3aR,4S,6aS)-2-[4-(trifluoromethyl)phenyl]octahydrocyclopenta[c]pyrrol-4-yl}glycinamide] |
|  | 1.45 | O=C(N[C@H]1CC[C@@H]2CN(S(=O)(=O)c3cccc(C(F)(F)F)c3)C[C@@H]21)[C@@H]1Cc2ccccc2CN1 [Example 391, (3S)-N-((3aR,4S,6aS)-2-{[3-(trifluoromethyl)phenyl]sulfonyl}octahydrocyclopenta[c]pyrrol-4-yl)-1,2,3,4-tetrahydroisoquinoline-3-carboxamide] |
| 0.82 |  | COc1cccc2[nH]cc(CN[C@H]3CC[C@@H]4CN(c5cccc(C(F)(F)F)n5)C[C@@H]43)c12 [Example 689, (3aR,4S,6aS)-N-[(4-methoxy-1H-indol-3-yl)methyl]-2-[6-(trifluoromethyl)pyridin-2-yl]octahydrocyclopenta[c]pyrrol-4-amine] |
|  | 3.59 | CC(C)C(C(=O)N[C@H]1CC[C@@H]2CN(Cc3ccccc3F)C[C@@H]21)c1ccccc1 (stereo partly drawn) [Example 85, N-[(3aR,4S,6aS)-2-(2-fluorobenzyl)octahydrocyclopenta[c]pyrrol-4-yl]-3-methyl-2-phenylbutanamide] |
|  | 4.59 | CN[C@H](CC(C)C)C(=O)N[C@@H]1CC[C@H]2CN(Cc3cccc(C(F)(F)F)c3)C[C@H]21 (relative stereo) [Example 163, N^2-methyl-N^1-{(3aS*,4R*,6aR*)-2-[3-(trifluoromethyl)benzyl]octahydrocyclopenta[c]pyrrol-4-yl}-D-leucinamide] |
| 1.48 |  | CN[C@H](C(=O)N[C@H]1CC[C@@H]2CN(S(=O)(=O)c3cccc(C(F)(F)F)c3)C[C@@H]21)C(C)C [Example 389, N^2-methyl-N^1-((3aR,4S,6aS)-2-{[3-(trifluoromethyl)phenyl]sulfonyl}octahydrocyclopenta[c]pyrrol-4-yl)-L-valinamide] |
|  | 2.03 | CC(C)C[C@H](NS(=O)(=O)C1CC1)C(=O)N[C@@H]1CC[C@H]2CN(Cc3cccc(C(F)(F)F)c3)C[C@H]21 [Example 172, N^2-(cyclopropylsulfonyl)-N^1-{(3aS,4R,6aR)-2-[3-(trifluoromethyl)benzyl]octahydrocyclopenta[c]pyrrol-4-yl}-L-leucinamide] |
| 0.32 |  | CCCC[C@H](NC)C(=O)N[C@H]1CC[C@@H]2CN(c3cccc(C(F)(F)F)n3)C[C@@H]21 [Example 589, N^2-methyl-N-{(3aR,4S,6aS)-2-[6-(trifluoromethyl)pyridin-2-yl]octahydrocyclopenta[c]pyrrol-4-yl}-L-norleucinamide] |
| 1.06 |  | O=C(N[C@@H]1CC[C@@H]2CN(Cc3ccccc3)C[C@@H]21)C(c1ccccc1)C1CCCCC1 (relative stereo) [Example 3, N-[(3aR*,4R*,6aS*)-2-benzyloctahydrocyclopenta[c]pyrrol-4-yl]-2-cyclohexyl-2-phenylacetamide] |
|  | 8.58 | CC(C)C[C@H](NS(C)(=O)=O)C(=O)N[C@@H]1CC[C@H]2CN(Cc3ccccc3)C[C@H]21 [Example 243, N^1-[(3aS,4R,6aR)-2-benzyloctahydrocyclopenta[c]pyrrol-4-yl]-N^2-(methylsulfonyl)-L-leucinamide] |
|  | 1.28 | CC(C)C[C@H](C(=O)N1C[C@@H]2CC[C@@H](NC(=O)C(C3CCCCC3)C3CCCCC3)[C@@H]2C1)N(C)C [Example 217, 2,2-dicyclohexyl-N-[(3aS,4R,6aR)-2-(N,N-dimethyl-D-leucyl)octahydrocyclopenta[c]pyrrol-4-yl]acetamide] |
